From ChEMBL document CHEMBL1156355, “Phenolic compounds from Miconia myriantha inhibiting Candida aspartic proteases” (J Nat Prod, 2001)
pIC50: −log10 of the molar value.

What was measured:
[1] = Inhibition of Candida albicans ATCC 10231 secreted aspartic protease
[2] = Inhibition of pepsin

| Structure (SMILES) | pIC50 [1] | pIC50 [2] |
| --- | --- | --- |
| COc1ccc([C@@H]2CC(=O)c3c(O)c(C)c(O[C@@H]4O[C@@H]5COC(=O)c6cc(O)c(O)c(O)c6-c6c(cc(O)c(O)c6O)C(=O)O[C@H]5[C@H](O)[C@H]4O)c(C)c3O2)cc1 | 5.08 | 4.18 |
| O=c1oc2c(O)c(O)cc3c(=O)oc4c(O)c(O)cc1c4c23 [ELLAGIC ACID] | 4.98 | 4.43 |
| CC(C)CC(=O)N[C@H](C(=O)N[C@H](C(=O)N[C@@H](CC(C)C)[C@@H](O)CC(=O)N[C@@H](C)C(=O)N[C@@H](CC(C)C)[C@@H](O)CC(=O)O)C(C)C)C(C)C [PEPSTATIN] | 7.80 | 6.51 |
